Measurements reported in patent US10184134B2, “Soybean event SYHT0H2 and compositions and methods for detection thereof” (Syngenta Participations AG, priority 2010, dated 2019).

How the values were obtained:
Type in all cases: in vivo
[1] = system: non-transgenic soybean line Jack; experiment: Field efficacy against glufosinate, non-transgenic soybean line Jack; settings: 900 g ai/ha glufosinate at V2/V3 stage and second treatment at V5-V6 stage, 8 locations in the United States
Method: (§1) SYHT0H2 soybean plants were tested for efficacy against glufosinate in 8 locations in the United States. The non-transgenic soybean line Jack was used as a control. Soybean plants, both SYHT0H2 and Jack, were treated with 900 g ai/ha of glufosinate at the V2/V3 stage and then a second treatment at the V5-V6 stage. They were then assessed for percentage of leaves showing injury at 4-8 days after treatment (DAT), 13-20 DAT, and 26-35 DAT.

SYHT0H2 soybean plants = experiment: Field efficacy against glufosinate, SYHT0H2 soybean plants; settings: 900 g ai/ha glufosinate at V2/V3 stage and second treatment at V5-V6 stage, 8 locations in the United States
Method: as §1

[2] = system: non-transgenic soybean line Jack; experiment: Field efficacy against mesotrione, non-transgenic soybean line Jack; settings: 210 g ai/ha mesotrione at V2/V3 stage, 5 locations in the United States
Method: (§2) Event SYHT0H2 soybean plants were tested for efficacy against mesotrione in 5 locations in the United States. The non-transgenic soybean line Jack was used as a control. Soybean plants, both SYHT0H2 and Jack, were treated with 210 g ai/ha of mesotrione at the V2/V3 stage and then assessed for percentage of leaves showing injury at 4-7 days after treatment (DAT), 13-17 DAT, and 25-33 DAT.

[3] = system: Event SYHT0H2 soybean plants; experiment: Field efficacy against mesotrione, event SYHT0H2 soybean plants; settings: 210 g ai/ha mesotrione at V2/V3 stage, 5 locations in the United States
Method: as §2

[4] = system: Event SYHT0H2 soybean plants; experiment: Herbicide tolerance performance of transgenic soybean transformants; settings: event SYHT0H2 from a population of about 90 transformants
From the text: After plants became established in the soil and new growth appeared (˜1-2 weeks), plants were sampled and tested for the presence of desired transgene by TAQMAN® analysis using appropriate probes for the HPPD genes, or promoters (for example prCMP). Positive plants were transplanted into 4″ square pots containing Fafard #3 soil. Sierra 17-6-12 slow release fertilizer was incorporated into the soil at the recommended rate. The plants were then relocated into a standard greenhouse to acclimatize (˜1 week). The environmental conditions were: 27° C. day; 21° C. night; 14 hour photoperiod (with supplemental light); ambient humidity. After acclimatizing (˜1 week), the plants were sampled and tested in detail for the presence and copy number of inserted transgenes. Transgenic soybean plants were grown to maturity for T1 seed production. T1 plants were grown up, and after TAQMAN® analysis, homozygous plants were grown for seed production. Transgenic seeds and progeny plants were used to further evaluate their herbicide tolerance performance and molecular characteristics.

| Compound | % Injury (percentage of leaves showing injury) ([1]; 4-8 DAT) | % Injury (percentage of leaves showing injury) ([1]; 13-20 DAT) | % Injury (percentage of leaves showing injury) ([1]; 26-35 DAT) | % Injury (percentage of leaves showing injury) (SYHT0H2 soybean plants; 4-8 DAT) | % Injury (percentage of leaves showing injury) (SYHT0H2 soybean plants; 13-20 DAT) | % Injury (percentage of leaves showing injury) (SYHT0H2 soybean plants; 26-35 DAT) | % Injury (percentage of leaves showing injury) ([2]; 4-7 DAT) | % Injury (percentage of leaves showing injury) ([2]; 13-17 DAT) | % Injury (percentage of leaves showing injury) ([2]; 25-33 DAT) | % Injury (percentage of leaves showing injury) ([3]; 4-7 DAT) | % Injury (percentage of leaves showing injury) ([3]; 13-17 DAT) | % Injury (percentage of leaves showing injury) ([3]; 25-33 DAT) | herbicide tolerance of event SYHT0H2 [4] |
| --- | --- | --- | --- | --- | --- | --- | --- | --- | --- | --- | --- | --- | --- |
| 2-amino-4-methylphosphinobutyric acid [glufosinate] | 100% | 100% | 100% | 9% | 5% | 0% | – | – | – | – | – | – | – |
| CS(=O)(=O)c1ccc(C(=O)C2C(=O)CCCC2=O)c([N+](=O)[O-])c1 [mesotrione] | – | – | – | – | – | – | 46.5% | 81% | 62.4% | 13.2% | 4.7% | 0% | high level of mesotrione tolerance |
